We go through ten molecules from US7968124B2, “Compositions for the reversal and detoxification of anesthetics and other compounds and methods of their use” (Lyotropic Therapeutics, Inc., priority 2004, dated 2011).

In brackets after ≈: the same amount, converted by molar mass. Like-named read-outs stand apart in the source and are kept apart here.

A short description of data set [1]: Uptake of toxin into particles, centrifuge filter separation and HPLC: etomidate. The following applies: etomidate in the absence of albumin.
A short description of data set [2]: Solubility of drugs in soy oil, water, tocopherol and PC/tocopherol/water cubic phase.
Method: (§1) Methanol and dichloromethane were particularly effective for this purpose. After solubilizing the compound and soy oil or tocopherol together with the common solvent, the common solvent was then evaporated using a rotovap. At the resulting concentration of the compound in soy oil or tocopherol, the sample was monitored over approximately 4 weeks for any sign of precipitation, using centrifugation and microscopy; the microscopy was performed using a combination of Differential Interference Contrast (DIC), transmitted dark field, and polarizing modes.
Data set [3] is described as follows: Partition of amphotericin B between PC/alpha-tocopherol/water cubic phase and water (HPLC). It counts as physicochemical. The protocol: Amphotericin B provides an example of an API with high toxicity which has a site of action in the interior of a fungal lipid biomembrane.
An amount 0.0082 g of Amphotericin B and 0.8 mL of DMSO (dimethylsulfoxide) were added to a 16 mL test tube. The test tube was heated to 60° C. until the amphotericin B was completely dissolved. An amount 0.692 g of 2.5% DMPG in the phosphatidylcholine product Lipoid E80, 0.8 mL of DMSO, and 0.6 mL of ethanol were added to a second 16 mL test tube. The mixture was heated to 60° C. and vortexed until the Lipoid E80/DMPG was entirely dissolved. An amount 0.6873 g of vitamin E and 0.8 mL of DMSO were added to a third 16 mL test tube. The mixture was heated to 60° C. and vortexed until the vitamin E was completely dissolved. The contents of the second and third test tubes were added to the first test tube containing the amphotericin B and DMSO mixture. The test tube containing the entire mixture was heated to 60° C. for 30 minutes to ensure that all components were completely dissolved.
An amount of 10 mL of deionized water was added to the test tube. The test tube was gently shaken at 40 RPM for 30 minutes on a Lab-Line Junior Orbit Shaker. The aqueous portion was decanted and filtered through Aldrich medium speed filter paper into a clean test tube and labeled “wash 1”. This washing procedure was repeated three additional times to obtain “wash 2”, “wash 3”, and “wash 4”.
HPLC analysis was then performed to determine the amphotericin B concentrations in the 4 wash solutions and the final, quadruply-washed cubic phase. […] In contrast, the amphotericin B concentrations in the “wash 3” and “wash 4” solutions were both approximately 0.0035 mg/mL, thus making the partition coefficient on the order of 1,000.

Data set [4] can be described thus: Effective partition coefficients of local anesthetics into Example 10 dispersions in the presence of albumin. The following applies: dispersions and methods of Example 10, RA5-15E dispersion named.
Method: Nanosep Omega centrifuge filters at 300,000 MWCO from Pall Filtron were used to separate particles from exterior phase.
For HPLC analysis, the bottom phase liquid (filtrate) was injected directly, and the top phase (retentate) dissolved in 500 microliters of methanol, then injected. […] Standards were run for each of the toxins, and toxin concentrations determined in the exterior (bottom) phase and in the top phase retentate.
The analysis proceeded as follows. […] From this and the top phase assay value, the concentration of toxin in the particles was back-calculated. This was then divided by the aqueous phase (bottom phase) concentration, since this was undiluted, in order to arrive at an effective partition coefficient.
The subject of data set [5] is bupivacaine cardiotoxicity. The data set is described as follows: Rescue in rat model with normally-lethal intravenous injection of bupivacaine. It counts as in vivo. The following applies: rats, 12 mg/Kg intravenously, all animals. The protocol: The RA5-5E and RA5-15E dispersions prepared in Example 10 were subsequently tested in vivo as a rescue agent in a rat model incorporating a normally-lethal intravenous injection of bupivacaine. Twelve adult male rats were randomly arranged into three groups of four animals each. Animals in each group were given a known lethal dose (12 mg/Kg) of the amide local anesthetic bupivacaine intravenously. Each animal was monitored for signs of acute cardiotoxicity. All animals became pulseless within 10 seconds of the injection of bupivacaine. When each animal became pulseless, it was treated immediately with mild chest compression and with one of the following: (i) 4 ml/Kg normal physiologic saline (Group A); (ii) 4 ml/Kg of dispersion RA5-15E of the instant invention with a 15 percent particle concentration (Group B); or, (iii) 6 ml/Kg of dispersion RA5-5E of the instant invention with a 5.6 percent particle concentration (Group C). […] The administration of the dispersion according to the instant invention rescued the animals from death due to the systemic toxicity of an overdose of a common local anesthetic agent.

For data set [6] the following is noted: pH 7.4; cited from earlier work.
A short description of data set [7]: Binding of strontium ions to cubic phase particles (precipitation, centrifugation). The data set is classed as physicochemical. The following applies: 18.9 mM strontium chloride added to RA5-15E; immediate precipitation, centrifuged to the bottom. The source says:
A high degree of binding of strontium ions to the phosphatidylcholine in RA5-15E was evidenced by the immediate precipitation of the cubic phase, which centrifuged to the bottom of the dispersion. Were the heavy strontium ions not bound, the cubic phase would be less dense than water and would have centrifuged to the top of the dispersion, as is the usual case with other methods of precipitating the particles. Radiostrontium, and to a lesser extent strontium, have known toxic effects, as do related phosphatidylcholine-binding metals. More broadly, this Example illustrates how the effect of large bilayer surface areas in cubic phase particles can result in effective uptake of toxins that bind to bilayer components.

The nature of data set [8]: Partitioning of vecuronium bromide between phosphatidylcholine/tocopherol/water reversed cubic phase and water (HPLC). It counts as physicochemical. The protocol: In this Example, the partitioning of the quaternary ammonium skeletal muscle relaxant vecuronium bromide, a water-soluble compound with a low octanol-water partition coefficient, between a phosphatidylcholine/tocopherol/water reversed cubic phase and water is measured, and found to be very high, sufficiently high as to enable the use of the invention in attenuating the effect of the drug in the body of a mammal. An amount 0.6169 gm of phosphatidylcholine (Phospholipon 90G, from Phospholipid GmbH) was mixed with 0.6730 gm of alpha-tocopherol and 0.2194 gm of a 10% vecuronium bromide solution in water. An amount 1.1226 gm of this mixture was smeared onto the inner wall of a test tube, and 6.4495 gm of water added to the tube so as to contact the mixture. Upon swelling with water, the mixture became a reversed cubic phase. […] The partition coefficient between cubic phase and water was thus approximately 1,600 (or log KQW=3.2). […] One with ordinary skill in the art will recognize that the vecuronium mass balance checks correctly if one assumes that the water content of the final cubic phase, after swelling to equilibrium, is approximately 40%, which is in perfect accord with the phase diagram derived in this laboratory for this cubic phase region.

The conditions of data set [9]: intravenous doses as high as 30 mg/Kg/day; cited from earlier work.
The mark [10] stands for this setting: oil or lipid, Solubility in soy oil.

Method for physchem: as §1

As to `CCOC(=O)c1cncn1[C@H](C)c1ccccc1` [Etomidate], the solubility (in general, the concentration that dissolves in the medium under given conditions) in the data set “physchem” (oil or lipid, Solubility in cubic phase with tocopherol, approx. 34% phosphatidylcholine, 31% tocopherol plus compound, 35% water) came to 105 mg/mL; in “physchem” (setting [10]), 80 mg/mL (≈ 327 mM); in the data set “physchem” (oil or lipid, Solubility in tocopherol), 200 mg/mL (≈ 819 mM); in the data set “physchem” (water, Solubility in Water), 4.5e-05 mg/mL (≈ 0.000184 mM). In data set [1], this molecule yielded an effective partition coefficient of 309.

Turning to `CCC(C)n1ncn(-c2ccc(N3CCN(c4ccc(OCC5COC(Cn6cncn6)(c6ccc(Cl)cc6Cl)O5)cc4)CC3)cc2)c1=O` (stereo not shown) [Itraconazole], the solubility in [2] (soy oil, oil or lipid) was less than 500 µg/mL; in data set [2] (water), 0.001 µg/mL (≈ 1.42e-06 mM).

Take `COc1c(C)c2c(c(O)c1C/C=C(\C)CCC(=O)OCCN1CCOCC1)C(=O)OC2` [Mycophenolate mofetil]: the solubility came out at 3000 µg/mL (≈ 6.92 mM) in data set [2] (soy oil, oil or lipid); 200000 µg/mL (≈ 461 mM) in [2] (tocopherol, oil or lipid); 39 µg/mL (≈ 0.09 mM) in data set [2] (water).

Take `CC(=O)O[C@H]1C(=O)[C@@]2(C)[C@H]([C@H](OC(=O)c3ccccc3)[C@]3(O)C[C@H](OC(=O)[C@H](O)[C@@H](NC(=O)c4ccccc4)c4ccccc4)C(C)=C1C3(C)C)[C@]1(OC(C)=O)CO[C@@H]1C[C@@H]2O` [Paclitaxel]: the solubility was 42 mg/mL (≈ 49.2 mM) in the data set “physchem” (oil or lipid, Solubility in cubic phase with spearmint oil in place of tocopherol); less than 0.1 mg/mL in the data set “physchem” (setting [10]); 100 mg/mL (≈ 117 mM) in the data set “physchem” (oil or lipid, Solubility in spearmint oil (used in place of tocopherol)).

As for `C[C@@H]1[C@H](O)[C@@H](C)/C=C/C=C/C=C/C=C/C=C/C=C/C=C/[C@H](O[C@@H]2O[C@H](C)[C@@H](O)[C@H](N)[C@@H]2O)C[C@@H]2O[C@](O)(C[C@@H](O)C[C@@H](O)[C@H](O)CC[C@@H](O)C[C@@H](O)CC(=O)O[C@H]1C)C[C@H](O)[C@H]2C(=O)O` [amphotericin B], the “concentration in "wash 3" and "wash 4" solutions” value in data set [3] is listed as “approximately 0.0035 mg/mL”. Also, the “true concentration in the cubic phase itself, estimated” value in data set [3] (corrected for entrapped water) is “approximately 3 mg/mL”. Moreover, the “concentration in quadruply-washed cubic phase (HPLC)” value in data set [3] (cubic phase with entrapped pockets of water) came to 1760 µg/mL.

Take `CCOC(=O)c1ccc(N)cc1` [benzocaine]: the effective partition coefficient in data set [4] worked out at 148.

As to `CCCCN1CCCCC1C(=O)Nc1c(C)cccc1C` (stereo not shown) [bupivacaine], the “time to pulselessness after injection” value in data set [5] was no more than 10 s. The effective partition coefficient in [4] came out at 62. Further, the octanol-water coefficient entry in data set [6] was “greater than 1,000”.

Turning to `[Cl-].[Cl-].[Sr+2]` [strontium ions, strontium chloride], the “binding of strontium ions to cubic phase particles” value in data set [7] is “strong binding”.

As to `CC(=O)O[C@H]1C[C@@H]2CC[C@@H]3[C@H](CC[C@@]4(C)[C@H]3C[C@H]([N+]3(C)CCCCC3)[C@@H]4OC(C)=O)[C@@]2(C)C[C@@H]1N1CCCCC1` [vecuronium bromide], in data set [8], the “log KQW” value is recorded as 3.2; the “partition coefficient between cubic phase and water” value was “approximately 1,600”. In addition, in [8] (after 3 days of contact), the “concentration in the aqueous phase” value is 6 µg/mL and the “concentration in the cubic phase” value was 10000 µg/mL. Further, the “log KQW” value in [8] (anionic lipid content increased by incorporating a bile salt) was “approximately 4”. Further, in data set [8] (for at least some cubic phases of use in the invention), the “cubic phase-water partition coefficient” value was “above 1,000”.

With tocopherol, the “adverse effects of intravenous doses” value in data set [9] is reported as “essentially free from any adverse effects”.
